# In patent US20230226087A1, “PHOSPHOLIPIDS AND PHOSPHOLIPID METABOLITES FOR TREATING VIRAL AND BACTERIAL PNEUMONIA AND SEPSIS” (ANDREAS HETTICH GMBH & CO. KG, priority 2020, published 2023):
# Read-outs that look alike come from different tables or passages of the source.
# Key:
# [1] = system: plasma LysoPC level; assay: Change of plasma LysoPC level after oral ingestion in a fasted healthy subject (HPTLC assay of LysoPC); details: 600 mg alpha-GPC
# Method: (§1) LysoPC from plasma, serum or blood was extracted in one step by a newly developed method and subsequently assayed by using HPTLC (high performance thin layer chromatography).
# (§2) The extraction of 50 μl of sample each was effected using salt-assisted extraction. For this purpose, a ceramic sphere (3.4 mm, ceramic) was charged in a 2 ml twist-top vial, and then 50 μl of distilled water, 50 μl of sample, 192 μl of concentrated ammonium acetate solution, and 300 μl of acetonitrile/1-pentanol (2.5:1 v/v) were added. After closing, the vial is intensively shaken centrifugally using dual centrifugation (ZentriMix 380 R, from the company Hettich, Tuttlingen, Germany) at 2000 rpm and 20° C. for 4 min. Subsequently, the vials are centrifuged at 16,000 rpm for 10 min. From the upper phase, 200 μl is removed, transferred to a crimp-top vial with a microinsert, crimped, and sent to HPTLC.
# (§3) For the determination of the LysoPC concentrations using HPTLC, five LysoPC standards (16, 40, 80, 120 and 160 μM LysoPC in acetonitrile/1-pentanol (2.5:1 v/v.) and up to 12 sample extracts were applied to a 20×10 cm silica gel plate using the automated applying device ATS4 (CAMAG, Switzerland). The volume applied is 6 μl each.
# (§4) After the application and after a dwell time of five minutes to ensure uniform evaporation of the solvent, the plate is placed into a preconditioned DC chamber filled with 35 ml of chloroform/methanol/water (65:35:4 v/v) and 200 μl of 25% ammonia solution for 20 min. Within this period, a travelling distance of about 9 cm is reached. […] After cooling to room temperature again, the optical density of the LysoPC bands (Rf about 0.1) is determined using the evaluation unit (TLC Visualizer 2, CAMAG, Switzerland), and the LysoPC concentrations were evaluated by comparing with the calibration substances using the HPTLC software “visionCATS” (Camag, Switzerland). If the LysoPC value is determined, not directly from plasma, but from whole blood, then the value needs to be corrected by the respective hematocrit value and by a factor of 1.3. […]
# [2] = system: plasma LysoPC level; details: human, in vivo
# Method: as §1, §2, §3, §4
# [3] = system: septic shock (Gram positive and Gram negative); details: rat, cited from earlier work
# [4] = squirrel monkeys; cited from earlier work
# [5] = system: sepsis models; details: mice, 25 mg/kg LysoPC i.p., cited from earlier work
# [6] = target: albumin (Homo sapiens, UniProt P02768); details: cited from earlier work
# [7] = Assaying the total amount of LysoPC in the body (distribution between plasma and deeper compartments); assay type: in vivo, human
# Method: To the therapeutic approach for the treatment of pneumonias of different origins and of sepsis as described herein, the determination of the total amount of LysoPC in the body is essential. The latter could be determined by determining the LysoPC concentration in the plasma, which is in equilibrium with the deeper compartments. To this end, one subject was administered, on the one hand, a high amount of phospholipid from egg (Example 1 (Determination of Plasma LysoPC) and Example 2). The plasma volume was calculated, the increase of the LysoPC concentration was determined, and the plasma LysoPC level accompanying this concentration change was calculated. This LysoPC amount and its ratio to the amount taken up yields the distribution of the LysoPC equivalent taken up between the plasma and the deeper compartments, from which the total LysoPC amount in the body can be calculated. It was considered that 100% of the phospholipid is taken up as LysoPC.
# In another experiment, a subject was administered a high amount (25 g) of pure triglyceride (Example 3). The plasma volume was calculated. The lowering of the LysoPC concentration because of the consumption of LysoPC for producing PC for the biosynthesis of chylomicrons was determined (One chylomicron contains about 5-10% PC as a ratio to the amount of triglyceride). The amount of plasma LysoPC involved in this concentration change was calculated. This amount of LysoPC and its ratio to the amount taken up yields the distribution of the LysoPC equivalent taken up between the plasma and the deeper compartments, from which the total LysoPC amount in the body can be calculated. It was considered that 100% of the plasma LysoPC was converted to PC.
# From the results of Examples 2 and 3, the amount of LysoPC in deeper compartments could be estimated at about 95% of the total body LysoPCs, i.e., about 5% is present in the blood plasma.
# On this basis, the amount of total body LysoPCs can be estimated to a minimum of 10 g. […]
# [8] = mice; cited from earlier work
# [9] = system: production of antigen-specific antibodies; details: mice, administered simultaneously with various antigens; cited from earlier work
# [10] = system: E. coli; details: mice, cited from earlier work
# Sequence of albumin (P02768 25-609): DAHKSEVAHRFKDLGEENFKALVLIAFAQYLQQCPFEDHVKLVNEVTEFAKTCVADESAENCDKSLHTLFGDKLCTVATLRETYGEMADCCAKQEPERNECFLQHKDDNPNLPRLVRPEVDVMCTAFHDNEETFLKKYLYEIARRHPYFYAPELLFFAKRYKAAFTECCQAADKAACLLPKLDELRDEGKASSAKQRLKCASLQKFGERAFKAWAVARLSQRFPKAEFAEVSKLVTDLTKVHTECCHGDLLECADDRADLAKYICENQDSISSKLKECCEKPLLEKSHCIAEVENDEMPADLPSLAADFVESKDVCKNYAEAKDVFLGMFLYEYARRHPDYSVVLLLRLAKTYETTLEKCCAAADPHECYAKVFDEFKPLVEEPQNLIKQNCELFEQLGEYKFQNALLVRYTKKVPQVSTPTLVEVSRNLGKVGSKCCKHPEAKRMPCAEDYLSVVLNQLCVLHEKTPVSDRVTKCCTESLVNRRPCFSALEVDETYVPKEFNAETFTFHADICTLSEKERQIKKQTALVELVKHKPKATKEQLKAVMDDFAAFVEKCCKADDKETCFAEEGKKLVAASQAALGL
substance,measurement,setting,value
alpha-glycerophosphocholine [alpha-GPC],increase of plasma LysoPC level,"[1]; rise within 30 min after the first hour, then constant until end (2 hours)",about 20%
same,change of plasma LysoPC level in the first hour,[1]; starting level about 190 μM,did not change
triglycerides,share of the consumed LysoPC amount (1700 mg) taken from the plasma,[2],3.9%
lyso-phosphatidylcholine [LysoPC],IL1-β levels,[3]; accompanying the protecting effects,reduction of the IL1-β levels
same,effect of higher doses,[3]; higher doses of up to 100 mg/kg,incapable or even harmful
same,effect on damage to the organs and dysfunctions,"[3]; up to 10 mg/kg, i.v.",reduce the damage to the organs and dysfunctions significantly
same,LysoPC half life,[4],1.3 h
same,bacterial clearance,[5],improved
same,"survival, first sepsis model",[5]; from 0%,69%
same,"survival, second sepsis model",[5]; from 0%,40%
same,number of binding sites of albumin for LysoPC,[6],3-4
same,share of plasma LysoPCs bound by albumin,[6]; plasma,about 80%
same,amount of total body LysoPCs,[7]; for mean 300 μM and plasma volume about 3.5 liters (about 500 mg in plasma),about 10 g
same,proportion of total body LysoPC located in the blood plasma,[7]; from Examples 2 and 3,4-5%
same,daily conversion rate of LysoPC,"[7]; healthy subjects, based on estimated total body half life of 2.5 hours",about 50 g
same,LysoPC half life,[8],about 4 hours
same,effect in the production of antigen-specific antibodies (adjuvant),[9],identical to that of alum
same,survival,"[10]; E. coli sepsis, 20 mg/kg LysoPC s.c., from about 20%",90%
same,duration of increased LysoPC level after a single injection,[10]; single injection,about 4 hours
